Laboratory results: US20160166648A1, “Treatment of Multiple Sclerosis With Combination of Laquinimod and Interferon-Beta” (Teva Pharmaceutical Industries, Ltd., priority 2011, published 2016)
“And” between values parts separate entries of the source, which are not always exact repeats. Equal entries are not always repeated. Where two headings read alike, the source gives them in different places.

Experiments:
[1] = test system: MOG induced EAE in C57 BI mice; experiment: Interferon-β s.c. daily alone or in combination with laquinimod in chronic MOG induced EAE; format: in vivo, C57BL/6 mice; conditions: for Activity compared to Laquinimod: Table 6
Multiple Sclerosis = conditions: two phase III trials; cited from earlier work
[2] = in vivo; cited from earlier work
[3] = Laquinimod 10 mg/kg oral QD, compared to vehicle
[4] = Laquinimod 25 mg/kg oral QD, compared to laquinimod (10 mg/kg)
[5] = Laquinimod 25 mg/kg oral QD, compared to vehicle

CCN(C(=O)c1c(O)c2c(Cl)cccc2n(C)c1=O)c1ccccc1 [Laquinimod]
Mean Onset [1]: 21.4 ± 8.2 days | GMS value (group mean score) ([1]; Laquinimod 10 mg/kg oral QD): 0.8 ± 0.8 and 0.8 | Incidence ([1]; Laquinimod 10 mg/kg oral QD): 8/13 | MMS value (mean maximal score) ([1]; Laquinimod 10 mg/kg oral QD): 1.8 ± 1.7 | Mean Duration ([1]; Laquinimod 10 mg/kg oral QD): 9.2 ± 8.3 days | Mean Onset ([1]; Laquinimod 10 mg/kg oral QD): 21.3 ± 8.2 days | Mortality ([1]; Laquinimod 10 mg/kg oral QD): 0/13 | % inhibition 1 (incidence) [1, 3]: 38.5% | % inhibition 2 (MMS) [1, 3]: 43.8% | % inhibition 3 (GMS); Activity [1, 3]: 60% | % inhibition 3 (GMS); Activity ([1]; Laquinimod 10 mg/kg oral QD, compared to vehicle, listed as laquinimod): 60% | GMS value (group mean score) ([1]; Laquinimod 10 mg/kg oral QD, listed as Laquinmod): 0.8 ± 0.8 | Activity compared to Laquinimod ([1]; Laquinimod 10 mg/kg): 60% | GMS value (group mean score) ([1]; Laquinimod 25 mg/kg oral QD): 0.3 | Incidence ([1]; Laquinimod 25 mg/kg oral QD): 5/15 | MMS value (mean maximal score) ([1]; Laquinimod 25 mg/kg oral QD): 0.8 ± 1.3 | Mean Duration ([1]; Laquinimod 25 mg/kg oral QD): 5.0 ± 7.4 days | Mean Onset ([1]; Laquinimod 25 mg/kg oral QD): 25.7 ± 7.8 days | Mortality ([1]; Laquinimod 25 mg/kg oral QD): 0/15 | % inhibition 1 (incidence) [1, 4]: 37.5% | % inhibition 2 (MMS) [1, 4]: 55.5% | % inhibition 3 (GMS) [1, 4]: 62.5% | % inhibition 1 (incidence) [1, 5]: 61.5% | % inhibition 2 (MMS) [1, 5]: 75.0% | % inhibition 3 (GMS); Activity [1, 5]: 85% | % inhibition 3 (GMS); Activity ([1]; Laquinimod 25 mg/kg oral QD, compared to vehicle, listed as Laquiniomd): 85.0% | GMS value (group mean score) ([1]; Laquinimod 25 mg/kg oral QD, listed as Laquiniomd): 0.3 ± 0.5 | GMS value (group mean score) ([1]; Laquinimod 25 mg/kg oral QD, listed as Laquinmod): 0.3 ± 0.5 | Activity compared to Laquinimod ([1]; Laquinimod 25 mg/kg): 85% | Activity compared to interferon-β (500,000 IU/mouse) ([1]; Laquinimod 25 mg/kg, according to GMS): 66.7%^ | Safety and tolerability profile (Multiple Sclerosis): favorable | Oral bioavailability [2]: high
